Where a name gives a salt, the structure may show the parent alone.
biological target: T1, LPL:sGPIHBP1 complex (Homo sapiens, UniProt P06858); assay: RB assay (LPL:sGPIHBP1 pre-incubated with ANGPTL4, RB substrate); format: biochemical; conditions: read-out: RB qAC50
T1 sequence (P06858 28-475): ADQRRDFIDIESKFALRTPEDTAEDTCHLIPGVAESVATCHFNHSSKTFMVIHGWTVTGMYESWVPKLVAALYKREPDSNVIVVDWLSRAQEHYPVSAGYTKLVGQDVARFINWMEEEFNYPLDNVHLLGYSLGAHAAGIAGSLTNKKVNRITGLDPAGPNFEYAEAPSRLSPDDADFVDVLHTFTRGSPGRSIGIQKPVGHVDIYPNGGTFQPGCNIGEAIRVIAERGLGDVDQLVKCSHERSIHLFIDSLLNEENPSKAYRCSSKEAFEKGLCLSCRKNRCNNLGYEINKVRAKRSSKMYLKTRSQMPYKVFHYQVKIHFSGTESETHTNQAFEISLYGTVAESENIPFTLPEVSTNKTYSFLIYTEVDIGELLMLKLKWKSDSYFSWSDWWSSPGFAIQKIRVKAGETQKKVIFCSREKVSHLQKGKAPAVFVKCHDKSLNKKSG
T1 sequence (Q8IV16 21-151 partner limits assumed): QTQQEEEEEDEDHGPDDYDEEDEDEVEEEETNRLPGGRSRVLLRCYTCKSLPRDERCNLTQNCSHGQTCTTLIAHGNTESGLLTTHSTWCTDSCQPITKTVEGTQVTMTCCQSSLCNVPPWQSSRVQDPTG
Description: The assay was performed in black 1536-well plates using purified proteins. To identify compounds that stimulate LPL activity either by directly activating LPL or by inhibiting the antagonist ANGPTL4, the LPL:sGPIHBP1 complex was pre-incubated with ANGPTL4 to decrease LPL activity by 80%. After a 60 min pre-incubation, the reaction was started by adding the RB substrate. 30 min after RB addition, the enzymatic reaction was stopped using SDS. Fluorescence intensity was measured 2 h after stopping the reaction.
20 or 40 nl of compound solution in 100% DMSO were placed in test plate. Then was added LPL:sGPIHBP1 to all wells (diluted in assay buffer to 5 nM; 2 μl/well). This was followed by an addition of ANGPTL4 to compounds and neutral controls (diluted in assay buffer to 20 nM; 1 μl/well). A buffer solution was added to the stimulator control (1 μl/well). The plates were then centrifuged and pre-incubated for 60 min at RT. The reaction was started by adding substrate to all wells (diluted in assay buffer to 40 μM, 1 μl/well). The plated were centrifuged (800 rpm for 1 min) and incubated 30 min at RT (=reaction time). The reaction was stopped by adding SDS to all wells (diluted in water to 2.5%, 2 μl/well); incubated 2 h at RT. The fluorescence intensity (ex 540 nm/em 590 nm) was measured on a Pherastar (BMG) using 5 flashes.

SMILES	EC50
O=C(O)Cc1cc(F)ccc1NC(=O)c1ccc(N2CCCCC2)c(NC(=O)c2cn3ccccc3n2)c1 [Compound 109, 2-(5-fluoro-2-(3-(imidazo[1,2-a]pyridine-2-carboxamido)-4-(piperidin-1-yl)benzamido)phenyl)acetic acid]	> 25 µM
Cc1nc(C(=O)Nc2cc(C(=O)Nc3ccc(F)cc3CC(=O)O)ccc2N2CCCCC2)n2ccccc12 [Compound 110, 2-(5-fluoro-2-(3-(1-methylimidazo[1,5-a]pyridine-3-carboxamido)-4-(piperidin-1-yl)benzamido)phenyl)acetic acid]	> 7.1 µM
O=C(O)Cc1cc(F)ccc1NC(=O)c1ccc(N2CCCCC2)c(NC(=O)c2nn(CC(F)(F)F)cc2-c2ccccc2)c1 [Compound 115, 2-(5-fluoro-2-(3-(4-phenyl-1-(2,2,2-trifluoroethyl)-1H-pyrazole-3-carboxamido)-4-(piperidin-1-yl)benzamido)phenyl)acetic acid]	> 7.1 µM
O=C(O)Cc1cc(F)ccc1NC(=O)c1ccc(N2CCCCC2)c(NC(=O)c2nn(CC(F)(F)F)cc2C2CC2)c1 [Compound 117, 2-(2-(3-(4-cyclopropyl-1-(2,2,2-trifluoroethyl)-1H-pyrazole-3-carboxamido)-4-(piperidin-1-yl)benzamido)-5-fluorophenyl)acetic acid]	> 25 µM
O=C(O)Cc1cc(F)ccc1NC(=O)c1ccc(N2CCCCC2)c(NC(=O)c2nn(CC3CCOC3)c3ccccc23)c1 (stereo not drawn) [Compound 118, 2-(5-fluoro-2-(4-(piperidin-1-yl)-3-(1-((tetrahydrofuran-3-yl)methyl)-1H-indazole-3-carboxamido)benzamido)phenyl)acetic acid]	> 7.1 µM
O=C(O)Cc1cc(F)ccc1NC(=O)c1ccc(N2CCCCC2)c(NC(=O)c2nn(CC3CCCO3)c3ccccc23)c1 (stereo not drawn) [Compound 119, 2-(5-fluoro-2-(4-(piperidin-1-yl)-3-(1-((tetrahydrofuran-2-yl)methyl)-1H-indazole-3-carboxamido)benzamido)phenyl)acetic acid]	6.6 µM
C#CCn1nc(C(=O)Nc2cc(C(=O)Nc3ccc(F)cc3CC(=O)O)ccc2N2CCCCC2)c2ccccc21 [Compound 122, 2-(5-fluoro-2-(4-(piperidin-1-yl)-3-(1-(prop-2-yn-1-yl)-1H-indazole-3-carboxamido)benzamido)phenyl)acetic acid]	3.8 µM
CC#CCn1nc(C(=O)Nc2cc(C(=O)Nc3ccc(F)cc3CC(=O)O)ccc2N2CCCCC2)c2ccccc21 [Compound 123, 2-(2-(3-(1-(but-2-yn-1-yl)-1H-indazole-3-carboxamido)-4-(piperidin-1-yl)benzamido)-5-fluorophenyl)acetic acid]	3.1 µM
Cc1cc(Cn2nc(C(=O)Nc3cc(C(=O)Nc4ccc(F)cc4CC(=O)O)ccc3N3CCCCC3)c3ccccc32)no1 [Compound 124, 2-(5-fluoro-2-(3-(1-((5-methylisoxazol-3-yl)methyl)-1H-indazole-3-carboxamido)-4-(piperidin-1-yl)benzamido)phenyl)acetic acid]	4.7 µM
N#CC1(Cn2nc(C(=O)Nc3cc(C(=O)Nc4ccc(F)cc4CC(=O)O)ccc3N3CCCCC3)c3ccccc32)CC1 [Compound 127, 2-(2-(3-(1-((1-cyanocyclopropyl)methyl)-1H-indazole-3-carboxamido)-4-(piperidin-1-yl)benzamido)-5-fluorophenyl)acetic acid]	4.3 µM
O=C(O)Cc1cc(F)ccc1NC(=O)c1ccc(N2CCCCC2)c(NC(=O)c2nn(CC3CCCOC3)c3ccccc23)c1 (stereo not drawn) [Compound 133, 2-(5-fluoro-2-(4-(piperidin-1-yl)-3-(1-((tetrahydro-2H-pyran-3-yl)methyl)-1H-indazole-3-carboxamido)benzamido)phenyl)acetic acid]	4.2 µM
O=C(O)Cc1cc(F)ccc1NC(=O)c1ccc(N2CCCCC2)c(NC(=O)c2nn(C[C@@H]3CCCO3)c3ccccc23)c1 [Compound 136, (S)-2-(5-fluoro-2-(4-(piperidin-1-yl)-3-(1-((tetrahydrofuran-2-yl)methyl)-1H-indazole-3-carboxamido)benzamido)phenyl)acetic acid]	> 25 µM
O=C(O)Cc1cc(F)ccc1NC(=O)c1ccc(N2CCCCC2)c(NC(=O)c2nn(C[C@H]3CCCO3)c3ccccc23)c1 [Compound 137, (R)-2-(5-fluoro-2-(4-(piperidin-1-yl)-3-(1-((tetrahydrofuran-2-yl)methyl)-1H-indazole-3-carboxamido)benzamido)phenyl)acetic acid]	3.8 µM

Other lines, results leading:

EC50	SMILES
23 µM	O=C(O)Cc1cc(F)ccc1NC(=O)c1ccc(N2CCCCC2)c(NC(=O)c2nn(CC(F)(F)F)c3cccnc23)c1 [Compound 111, 2-(5-fluoro-2-(4-(piperidin-1-yl)-3-(1-(2,2,2-trifluoroethyl)-1H-pyrazolo[4,3-b]pyridine-3-carboxamido)benzamido)phenyl)acetic acid]
6.4 µM	O=C(O)Cc1cc(F)ccc1NC(=O)c1ccc(N2CCCCC2)c(NC(=O)c2nn(CC(F)(F)F)c3cnccc23)c1 [Compound 112, 2-(5-fluoro-2-(4-(piperidin-1-yl)-3-(1-(2,2,2-trifluoroethyl)-1H-pyrazolo[3,4-c]pyridine-3-carboxamido)benzamido)phenyl)acetic acid]
9 µM	O=C(O)Cc1cc(F)ccc1NC(=O)c1ccc(N2CCCCC2)c(NC(=O)c2nn(CC(F)(F)F)c3ncccc23)c1 [Compound 113, 2-(5-fluoro-2-(4-(piperidin-1-yl)-3-(1-(2,2,2-trifluoroethyl)-1H-pyrazolo[3,4-b]pyridine-3-carboxamido)benzamido)phenyl)acetic acid]
23 µM	O=C(O)Cc1cc(F)ccc1NC(=O)c1ccc(N2CCCCC2)c(NC(=O)c2cc(-c3ccccc3)n(CC(F)(F)F)n2)c1 [Compound 116, 2-(5-fluoro-2-(3-(5-phenyl-1-(2,2,2-trifluoroethyl)-1H-pyrazole-3-carboxamido)-4-(piperidin-1-yl)benzamido)phenyl)acetic acid]
4.2 µM	O=C(O)Cc1cc(F)ccc1NC(=O)c1ccc(N2CCCCC2)c(NC(=O)c2nn(CCC(F)(F)F)c3ccccc23)c1 [Compound 121, 2-(5-fluoro-2-(4-(piperidin-1-yl)-3-(1-(3,3,3-trifluoropropyl)-1H-indazole-3-carboxamido)benzamido)phenyl)acetic acid]
0.66 µM	O=C(O)Cc1cc(F)ccc1NC(=O)c1ccc(N2CCCCC2)c(NC(=O)c2cn(CC(F)(F)F)c3ccccc23)c1 [Compound 128, 2-(5-fluoro-2-(4-(piperidin-1-yl)-3-(1-(2,2,2-trifluoroethyl)-1H-indole-3-carboxamido)benzamido)phenyl)acetic acid]
> 25 µM	Cc1c(C(=O)Nc2cc(C(=O)Nc3ccc(F)cc3CC(=O)O)ccc2N2CCCCC2)c2ccccc2n1CC(F)(F)F [Compound 130, 2-(5-fluoro-2-(3-(2-methyl-1-(2,2,2-trifluoroethyl)-1H-indole-3-carboxamido)-4-(piperidin-1-yl)benzamido)phenyl)acetic acid]
4.4 µM	O=C(O)Cc1cc(F)ccc1NC(=O)c1ccc(N2CCCCC2)c(NC(=O)c2cc(-c3ccccc3)nn2CC(F)(F)F)c1 [Compound 134, 2-(5-fluoro-2-(3-(3-phenyl-1-(2,2,2-trifluoroethyl)-1H-pyrazole-5-carboxamido)-4-(piperidin-1-yl)benzamido)phenyl)acetic acid]
12 µM	O=C(O)Cc1cc(F)ccc1NC(=O)c1ccc(N2CCCCC2)c(NC(=O)c2c3ccccc3nn2CC(F)(F)F)c1 [Compound 135, 2-(5-fluoro-2-(4-(piperidin-1-yl)-3-(2-(2,2,2-trifluoroethyl)-2H-indazole-3-carboxamido)benzamido)phenyl)acetic acid hydrochloride]
4.8 µM	O=C(O)Cc1cc(F)ccc1NC(=O)c1ccc(N2CCCCC2)c(NC(=O)c2nn(CC(F)(F)F)c3ccc(F)cc23)c1 [Compound 138, 2-(5-fluoro-2-(3-(5-fluoro-1-(2,2,2-trifluoroethyl)-1H-indazole-3-carboxamido)-4-(piperidin-1-yl)benzamido)phenyl)acetic acid]
> 25 µM	Cc1cccc2c1c(C(=O)Nc1cc(C(=O)Nc3ccc(F)cc3CC(=O)O)ccc1N1CCCCC1)nn2CC(F)(F)F [Compound 141, 2-(5-fluoro-2-(3-(4-methyl-1-(2,2,2-trifluoroethyl)-1H-indazole-3-carboxamido)-4-(piperidin-1-yl)benzamido)phenyl)acetic acid]
